Experimental data: PMC9097471, “Development of Selective Phosphatidylinositol 5-Phosphate 4-Kinase γ Inhibitors with a Non-ATP-competitive, Allosteric Binding Mode” (Journal of Medicinal Chemistry, 2022)
Converted amounts (≈) assume the structure as drawn. Like-named read-outs stand apart in the source and are kept apart here.

Columns and labels:
Plasma protein binding = type: in vitro ADME; details: Mouse plasma protein binding; read-out: mPPB (converted)
Experimental: Plasma protein binding analysis was performed by Charles River Laboratories Inc. (ADME-SOP-90). Briefly, compounds in DMSO (10 µM, 0.5% DMSO final) were added to mouse plasma and dialysed against buffer for 4 hours at 37 °C. The compound concentration in each of the plasma and buffer compartments was determined by mass spectrometry and used to calculate the percentage compound bound. […]

[1] = Liver microsomal stability; type: in vitro ADME; details: liver microsomes; Human liver microsomal hepatic stability; read-out: HLM t1/2
PI5P4Kβ-WT = biological target: T1, PI5P4Kβ-WT (Homo sapiens, UniProt P78356); assay: ADP-Glo inhibition assay; details: for PI5P4Kβ pIC50: ADP-Glo
T1 sequence (P78356 1-416): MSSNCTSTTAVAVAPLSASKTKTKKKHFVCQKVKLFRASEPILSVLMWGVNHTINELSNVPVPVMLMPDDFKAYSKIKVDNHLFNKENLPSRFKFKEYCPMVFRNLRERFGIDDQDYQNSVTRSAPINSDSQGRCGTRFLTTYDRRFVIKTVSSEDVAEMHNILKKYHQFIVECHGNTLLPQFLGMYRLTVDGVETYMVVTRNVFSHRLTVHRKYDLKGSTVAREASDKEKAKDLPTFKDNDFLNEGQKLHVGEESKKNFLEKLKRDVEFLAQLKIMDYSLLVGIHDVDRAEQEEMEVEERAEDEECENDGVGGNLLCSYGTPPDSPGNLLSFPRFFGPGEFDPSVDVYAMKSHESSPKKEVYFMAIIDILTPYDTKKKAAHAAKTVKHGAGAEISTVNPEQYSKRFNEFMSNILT
Source text: (§2) To enable direct comparisons, Promega’s ADP-Glo reporter assay was developed using a mutant form of the kinase. […] To mitigate concerns about being misled by the use of the PI5P4Kγ+ construct and the possible introduction of PI5P4Kα activity into the molecules, our screening cascade included the measurement of ADP-Glo activity at PI5P4Kα-WT (and PI5P4Kβ-WT to fully understand emerging selectivity profiles).

PI5P4Kα-WT = biological target: T2, PI5P4Kα-WT (Homo sapiens, UniProt P48426); assay: ADP-Glo inhibition assay; details: for PI5P4Kα pIC50: ADP-Glo
T2 sequence (P48426 1-406): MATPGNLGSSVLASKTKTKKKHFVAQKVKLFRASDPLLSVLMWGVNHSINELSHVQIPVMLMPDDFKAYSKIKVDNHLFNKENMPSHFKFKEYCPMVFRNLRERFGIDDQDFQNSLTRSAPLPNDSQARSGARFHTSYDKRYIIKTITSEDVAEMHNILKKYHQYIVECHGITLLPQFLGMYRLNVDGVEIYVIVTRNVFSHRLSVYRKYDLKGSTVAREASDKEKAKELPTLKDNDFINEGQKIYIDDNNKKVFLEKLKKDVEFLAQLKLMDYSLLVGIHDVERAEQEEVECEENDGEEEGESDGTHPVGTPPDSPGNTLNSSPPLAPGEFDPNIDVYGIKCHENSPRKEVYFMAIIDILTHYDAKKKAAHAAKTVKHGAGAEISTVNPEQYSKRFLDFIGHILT
Source text: as §2

Caco-2 cell permeability = type: in vitro ADME; details: human; for Papp A→B at 1 h, 10 µM: Caco-2, apical-to-basolateral
Experimental: Permeability: bi-directional Caco-2 cell permeability was performed by Charles River Laboratories Inc. (ADME-SOP-49). Briefly, compounds were administered at 10 µM (1% DMSO final) to the apical or basolateral side of a polarised Caco-2 cell monolayer, then incubated at 37 °C for 60 minutes before appearance on the opposite side of the monolayer was determined by mass spectrometry. The efflux ratio (ER) is calculated from the ratio of B-A […]

PI5P4Kγ+ = biological target: T3, PI5P4Kγ+ (Homo sapiens, UniProt Q8TBX8, D138G/D197E/E133P/E135D/E153T/E196G/G136S/G139A/N195G/S132L/S134N); assay: ADP-Glo inhibition assay; type: biochemical; details: for IC50: ADP-Glo
T3 construct: GST (N, cleaved yes); made in house; host or cells: E. coli BL21(DE3), pGEX6P
T3 sequence (Q8TBX8 with tags, fused parts or gaps INS131LPN/S132D/E133S/S134Q/E135A/G136R/D138G/G139A/E153T/N195G/E196G/D197E): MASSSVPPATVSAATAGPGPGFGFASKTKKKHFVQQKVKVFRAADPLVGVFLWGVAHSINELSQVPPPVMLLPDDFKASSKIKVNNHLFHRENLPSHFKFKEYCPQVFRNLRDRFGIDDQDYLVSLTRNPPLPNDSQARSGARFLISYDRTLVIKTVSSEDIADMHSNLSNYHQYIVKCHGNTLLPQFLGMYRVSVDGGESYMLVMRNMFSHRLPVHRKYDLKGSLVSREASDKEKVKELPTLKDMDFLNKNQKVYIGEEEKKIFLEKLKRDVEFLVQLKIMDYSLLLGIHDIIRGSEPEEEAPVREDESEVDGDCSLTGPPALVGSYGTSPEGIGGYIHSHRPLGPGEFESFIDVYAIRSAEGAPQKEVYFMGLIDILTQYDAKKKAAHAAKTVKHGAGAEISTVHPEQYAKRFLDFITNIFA
Experimental: Recombinant mutant PI5P4Kγ+ was prepared essentially as described previously.[25] […] Cultures were induced with 0.4 mM IPTG and probe sonicated in the presence of protease inhibitors. The GST fusion protein of PI5P4Kγ+ was harvested by binding to glutathione sepharose beads (Cytiva) and cleaved in situ with 50U of PreScission protease (Cytiva) for 4 h at 4 °C. The cleaved protein was further purified by size-exclusion chromatography (AKTA Pure, Cytiva). The protein purity was confirmed by sodium dodecyl sulphate–polyacrylamide gel electrophoresis, and the concentration was determined by colorimetric assay (Bio-Rad).
(§1) Statistical analysis was performed using nonparametric testing in Prism 8 (GraphPad). Activity pIC50 values and in vivo binding pEC50 values were estimated using a 4-parameter fit (Dotmatics).

PI5P4Kγ-WT [2] = biological target: T4, PI5P4Kγ-WT (Homo sapiens, UniProt Q8TBX8); assay: Thermal shift assay; details: read-out: ΔTm PI5P4Kγ WT, thermal shift, compound 63 μM
T4 sequence (Q8TBX8 1-421): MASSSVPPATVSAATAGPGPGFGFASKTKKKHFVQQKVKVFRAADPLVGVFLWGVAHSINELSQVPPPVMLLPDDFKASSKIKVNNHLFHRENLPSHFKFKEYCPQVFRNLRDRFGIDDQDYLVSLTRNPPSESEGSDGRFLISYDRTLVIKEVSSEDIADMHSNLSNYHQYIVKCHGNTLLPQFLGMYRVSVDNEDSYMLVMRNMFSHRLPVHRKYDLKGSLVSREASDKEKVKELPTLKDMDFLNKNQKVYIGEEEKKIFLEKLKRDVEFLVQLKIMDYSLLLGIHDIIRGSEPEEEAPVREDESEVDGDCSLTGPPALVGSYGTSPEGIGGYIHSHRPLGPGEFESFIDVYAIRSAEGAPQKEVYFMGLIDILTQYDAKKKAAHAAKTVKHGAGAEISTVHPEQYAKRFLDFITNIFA

Kinetic solubility = type: physicochemical; details: PBS buffer, PBS pH 7.4
Experimental: Kinetic solubility analysis was performed by Charles River Laboratories Inc. (ADME-SOP-01). Compound in
DMSO at 10 mM was diluted to 200 µM in both DMSO and buffer (0.1 M PBS, pH 7.4, 2% DMSO final), and
an aliquot of the 200 µM DMSO solution was diluted to 10 µM, and all dilutions were equilibrated for 2 hours. […]
Compound 9 was purchased from Am binter (Amb16536894) and was determined by UPLC to have purity >95%.
All other compounds were synthesised as described below , and all tested compounds have purity >95% by UPLC

[3] = Chromatographic LogD (HPLC method); type: physicochemical; details: pH 7.4, read-out: mchrom log D7.4
Experimental: 5-100% gradient of MeCN in 50mM NH4OAc in H 2O adjusted to pH 7.4. […]

PI5P4Kγ [4] = system: PI5P4Kγ; parameters: method as in ref 30 (1), ref 23 (2); details: 32P-ATP/PI5P incorporation; ref 30 (1), ref 23 (2); cited from earlier work
PI5P4Kγ-WT [5] = biological target: T4, PI5P4Kγ-WT; assay: InCell Pulse cellular target engagement (thermal stabilisation) in HEK293 cells; type: cell-based; details: InCell Pulse, new data
Experimental: The binding of compounds to PI5P4Kγ in intact cells was assessed using an InCell Pulse thermal stabilisation assay (DiscoverX). […] The plate was then incubated for 60 min in the dark prior to luminescence reading using a Pherastar FSX plate reader (BMG Labtech).
as §1

PI5P4Kα [6] = system: PI5P4Kα; parameters: method as in ref 23 (a number printed in a supplementary file, which may have a reference list of its own: not looked up in the article's list); details: KINOMEscan @ 10 μM; cited from earlier work
PI5P4Kβ = biological target: T5, PI5P4Kβ (Homo sapiens, UniProt P78356); parameters: method as in ref 23 (a number printed in a supplementary file, which may have a reference list of its own: not looked up in the article's list); details: KINOMEscan @ 10 μM; cited from earlier work
T5 sequence (P78356 1-416): T1 sequence (P78356 1-416)

PI5P4Kα [7] = details: bioluminescence assay; cited from earlier work
PI5P4Kγ [8] = biological target: PI5P4Kγ; parameters: method as in Rosenthal 2011, Davis 2011, Karaman 2008, Klaeger 2017; details: public kinase panel data; ref Rosenthal 2011, Davis 2011, Karaman 2008, Klaeger 2017; cited from earlier work
[9] = mutant PI5P4Kγ+ construct, read-out: PI5P4Kγ+ pIC50 (converted)
[10] = new data, read-out: PI5P4Kγ+ IC50

| SMILES | fraction unbound at 4 h, 10 µM (Plasma protein binding) | half-life at 1 µM [1] [min] | PI5P4Kβ pIC50 (PI5P4Kβ-WT) | PI5P4Kα pIC50 (PI5P4Kα-WT) | IC50 (PI5P4Kγ+; [9]) [µM] | solubility at 2 h (Kinetic solubility) [µM] | chromatographic logD [3] | IC50 (PI5P4Kα-WT) [µM] | PI5P4Kγ pKD (PI5P4Kγ [8]) | further results |
| --- | --- | --- | --- | --- | --- | --- | --- | --- | --- | --- |
| Cc1cnc(-c2ccccc2C(F)(F)F)nc1NCc1ccccn1 [Compound 35] | 0.03 | 41 | <4.6 | <4.3 | 10 | 113 (≈ 38.9 µg/mL) | 4.2 | – | – | Papp A→B at 1 h, 10 µM (Caco-2 cell permeability): 106 ×10⁻⁶ cm/s; efflux ratio at 1 h, 10 µM (Caco-2 cell permeability; Caco-2 efflux ratio (B-A/A-B), read-out: ER): 0.5; PI5P4Kγ+ LE (PI5P4Kγ+; ligand efficiency from PI5P4Kγ+ pIC50): 0.28; ΔTm at 63 µM (PI5P4Kγ-WT [2]): 3.9 °C |
| FC(F)(F)c1ccccc1-c1nc(NCc2ccccn2)c2ccccc2n1 [Compound 14] | < 0.01 | 31 | <4.6 | <4.3 | 3.16 | 9 (≈ 3.42 µg/mL) | – | – | – | Papp A→B at 1 h, 10 µM (Caco-2 cell permeability): 85 ×10⁻⁶ cm/s; ΔTm at 63 µM (PI5P4Kγ-WT [2]): 6.3 °C |
| Cn1nnnc1Sc1ncnc2scc(-c3cccc(S(C)(=O)=O)c3)c12 [Compound 2, NCT-504] | – | – | – | – | – | – | – | 2 | – | IC50 (PI5P4Kβ-WT): > 25 µM; IC50 (PI5P4Kγ+; [10]): > 50 µM; IC50 (PI5P4Kγ [4]): 16 µM; IC50 (PI5P4Kγ-WT [5]): > 50 µM; PI5P4Kα % inh (PI5P4Kα [6]): <35% inh @ 10 uM (KINONMEscan); PI5P4Kβ % inh (PI5P4Kβ): <65% inh @ 10 uM (KINONMEscan) |
| Cc1ccc(-n2ccc3c(Nc4cccc(NC(=O)c5ccc(NC(=O)/C=C/CN(C)C)cc5)c4)ncnc32)cc1 [Compound 4] | – | – | – | – | – | – | – | – | – | IC50 (PI5P4Kα [7]): 1.3 µM |
| FC(F)(F)c1ccccc1-c1nc(NCc2ccccn2)c2cccnc2n1 [Compound 38] | 0.01 | 100 | <4.6 | <4.3 | – | 6 (≈ 2.29 µg/mL) | 3.2 | – | – | – |
| Cc1nc(CN(C)c2ncnc3ccc(-c4ccc5c(c4)OCO5)cc23)cs1 [ML106, reference compound] | – | – | – | – | 10 | – | – | > 50.1 | 6.4 | – |
| CN(C)C/C=C/C(=O)Nc1ccc(C(=O)Nc2cccc(Nc3cc(-c4c[nH]c5ccccc45)ncn3)c2)cc1 [Compound 3, THZ-P1-2] | – | – | – | – | – | – | – | – | – | IC50 (PI5P4Kγ+; [10]): 0.13 µM; IC50 (PI5P4Kα [7]): 0.95 µM; IC50 (PI5P4Kγ-WT [5]): 1.3 µM |
| Cc1nc(CNc2ncnc3ccc(-c4ccc5c(c4)OCO5)cc23)cs1 [ML197, reference compound] | – | – | – | – | 3.98 | – | – | > 50.1 | 6.6 | – |
| CC(C)c1ccccc1-c1nc(NCc2ccccn2)c2ccccc2n1 [Compound 22] | < 0.01 | 37 | <4.6 | <4.3 | – | < 5 | 5.7 | – | – | – |
| CC(=O)c1c(C)c2cnc(Nc3ccc(N4CCNCC4)cn3)nc2n(C2CCCC2)c1=O [Palbociclib, reference compound] | – | – | – | – | – | – | – | – | 5.8 | IC50 (PI5P4Kβ-WT): > 25.1 µM |
